What was measured:
[1] = target: T1, Poly [ADP-ribose] polymerase tankyrase-2 (Homo sapiens, UniProt Q9H2K2); assay: Inhibition of TNKS2 (unknown origin) expressed in HEK293 cells assessed as inhibition of Wnt3a-induced Wnt/beta-catenin signaling after 24 hrs by luciferase reporter gene assay; assay type: cell-based
T1 sequence (Q9H2K2 whole entry): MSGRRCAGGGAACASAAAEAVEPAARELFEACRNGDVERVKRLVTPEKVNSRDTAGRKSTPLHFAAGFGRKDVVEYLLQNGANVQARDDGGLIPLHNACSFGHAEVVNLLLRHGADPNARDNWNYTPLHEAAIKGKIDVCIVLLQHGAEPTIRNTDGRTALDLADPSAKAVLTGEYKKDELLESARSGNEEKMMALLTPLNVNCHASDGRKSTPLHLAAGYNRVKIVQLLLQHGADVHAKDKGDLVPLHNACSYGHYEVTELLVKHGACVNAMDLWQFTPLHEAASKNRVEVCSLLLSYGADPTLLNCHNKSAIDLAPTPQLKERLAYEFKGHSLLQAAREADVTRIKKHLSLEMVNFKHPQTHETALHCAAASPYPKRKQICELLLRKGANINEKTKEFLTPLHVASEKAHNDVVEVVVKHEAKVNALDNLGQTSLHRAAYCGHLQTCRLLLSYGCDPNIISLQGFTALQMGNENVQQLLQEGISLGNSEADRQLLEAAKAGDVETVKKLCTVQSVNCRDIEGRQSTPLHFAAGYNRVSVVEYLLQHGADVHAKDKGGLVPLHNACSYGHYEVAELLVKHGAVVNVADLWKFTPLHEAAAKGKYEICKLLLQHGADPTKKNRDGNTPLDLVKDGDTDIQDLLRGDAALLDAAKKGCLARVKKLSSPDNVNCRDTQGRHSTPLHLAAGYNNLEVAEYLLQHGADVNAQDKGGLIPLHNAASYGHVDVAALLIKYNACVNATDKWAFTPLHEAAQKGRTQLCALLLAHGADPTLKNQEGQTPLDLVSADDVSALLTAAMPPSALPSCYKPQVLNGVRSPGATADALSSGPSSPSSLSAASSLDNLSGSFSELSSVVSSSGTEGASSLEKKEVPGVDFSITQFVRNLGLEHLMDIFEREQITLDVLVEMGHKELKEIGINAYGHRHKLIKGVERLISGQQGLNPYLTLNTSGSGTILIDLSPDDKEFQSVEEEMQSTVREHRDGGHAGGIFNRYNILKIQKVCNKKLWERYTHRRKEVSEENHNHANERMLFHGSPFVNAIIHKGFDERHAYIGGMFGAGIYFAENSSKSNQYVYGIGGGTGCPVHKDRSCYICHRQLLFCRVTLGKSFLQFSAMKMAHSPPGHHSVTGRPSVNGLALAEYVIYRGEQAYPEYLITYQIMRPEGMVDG

[2] = target: T1, Poly [ADP-ribose] polymerase tankyrase-2; assay: Inhibition of TNKS2 (unknown origin) transfected in human SW480 cells assessed as inhibition of Wnt3a-induced Wnt/beta-catenin signaling after 48 hrs by ST-luciferase reporter gene assay; assay type: cell-based
[3] = target: T1, Poly [ADP-ribose] polymerase tankyrase-2; assay: Inhibition of human TNKS2 (873 to 1162 residues) assessed as reduction in NAD+ consumption by fluorescence assay

Row | Compound | IC50 [1] [µM] | IC50 [2] [µM] | IC50 [3] [µM]
1 | O=c1[nH]c2ccccc2n1[C@H]1CC[C@H](c2nnc(-c3ccncn3)n2-c2ccccc2Cl)CC1 | 1.06 | 1.8 | 0.43
2 | O=c1[nH]c2ccccc2n1[C@H]1C[C@H](c2nnc(-c3ccncn3)n2-c2ccccc2Cl)C1 | 0.2 | 0.41 | 0.0098

From ChEMBL document CHEMBL4028904, “Discovery of a Novel Series of Tankyrase Inhibitors by a Hybridization Approach” (J Med Chem, 2017)
